Each compound was assayed against T1, human MDM2 (GST-hMDM2 1-188), interaction with biotinylated-p53 (1-83) (Homo sapiens, UniProt Q00987) (assay: improved HTRF assay (HTRF2 assay), inhibition of HDM2-p53 interaction). Details: 0.2 nM GST-hMDM2, 0.5 nM biotinylated-p53, 100 mM KF.
T1 construct: Amino acid residues 1-188 of human MDM2 were expressed; made in house; host or cells: Escherichia coli
T1 sequence (Q00987 1-188): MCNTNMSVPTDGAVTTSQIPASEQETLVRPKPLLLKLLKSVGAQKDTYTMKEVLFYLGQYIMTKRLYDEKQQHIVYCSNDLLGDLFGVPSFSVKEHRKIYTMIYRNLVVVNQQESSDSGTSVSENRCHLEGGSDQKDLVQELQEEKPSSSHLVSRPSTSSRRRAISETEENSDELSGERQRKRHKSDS
Assay type: binding
Method in brief: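 GST-hMDM2 preincubated 20 min at RT with serially diluted compound, then biotinylated p53 (1-83, E. coli) added for 60 min. Detection with SA-XLent, anti-GST cryptate and KF, equilibrated >4 h; final DMSO 2%. TR-FRET read; % inhibition calculated relative to nutlin-3.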
Work on `CC(C)(C)S(=O)(=O)C[C@H](C1CC1)N1C(=O)[C@@H](CC(=O)Nc2ccccn2)O[C@H](c2cccc(Cl)c2)[C@H]1c1ccc(Cl)cc1` (single isomer, unassigned) [Example 355, 2-((2R,5R,6R)-4-((S)-2-(tert-Butylsulfonyl)-1-cyclopropylethyl)-6-(3-chlorophenyl)-5-(4-chlorophenyl)-3-oxomorpholin-2-yl)-N-(pyridin-2-yl)acetamide or 2-((2S,5R,6R)-4-((S)-2-(tert-butylsulfonyl)-1-cyclopropylethyl)-6-(3-chlorophenyl)-5-(4-chlorophenyl)-3-oxomorpholin-2-yl)-N-(pyridin-2-yl)acetamide] yielded an IC50 of 4 nM. Compound `CC(C)(C)S(=O)(=O)C[C@H](C1CC1)N1C(=O)[C@@H](CC(N)=O)O[C@H](c2cccc(Cl)c2)[C@H]1c1ccc(Cl)cc1` (single isomer, unassigned) [Example 356, 2-((2R,5R,6R)-4-((S)-2-(tert-Butylsulfonyl)-1-cyclopropylethyl)-6-(3-chlorophenyl)-5-(4-chlorophenyl)-3-oxomorpholin-2-yl)acetamide or 2-((2S,5R,6R)-4-((S)-2-(tert-butylsulfonyl)-1-cyclopropylethyl)-6-(3-chlorophenyl)-5-(4-chlorophenyl)-3-oxomorpholin-2-yl)acetamide] has an IC50 of 10 nM. `CC(C)(C)S(=O)(=O)C[C@H](C1CC1)N1C(=O)[C@@H](CC(N)=O)O[C@H](c2cccc(Cl)c2)[C@H]1c1ccc(Cl)cc1` (single isomer, unassigned) [Example 357, 2-((2R,5R,6R)-4-((S)-2-(tert-Butylsulfonyl)-1-cyclopropylethyl)-6-(3-chlorophenyl)-5-(4-chlorophenyl)-3-oxomorpholin-2-yl)acetamide or 2-((2S,5R,6R)-4-((S)-2-(tert-butylsulfonyl)-1-cyclopropylethyl)-6-(3-chlorophenyl)-5-(4-chlorophenyl)-3-oxomorpholin-2-yl)acetamide] showed an IC50 of 6 nM. With `NC(=O)C[C@H]1O[C@H](c2cccc(Cl)c2)[C@@H](c2ccc(Cl)cc2)N([C@H](CN(c2c(F)cccc2F)S(=O)(=O)C2CC2)C2CC2)C1=O` (single isomer, unassigned) [Example 358, 2-((2R,5R,6R)-6-(3-Chlorophenyl)-5-(4-chlorophenyl)-4-((S)-1-cyclopropyl-2-(N-(2,6-difluorophenyl)cyclopropanesulfonamido)ethyl)-3-oxomorpholin-2-yl)acetamide or 2-((2S,5R,6R)-6-(3-chlorophenyl)-5-(4-chlorophenyl)-4-((S)-1-cyclopropyl-2-(N-(2,6-difluorophenyl)cyclopropanesulfonamido)ethyl)-3-oxomorpholin-2-yl)acetamide] the IC50 was < 1 nM. `NC(=O)C[C@H]1O[C@H](c2cccc(Cl)c2)[C@@H](c2ccc(Cl)cc2)N([C@H](CN(c2c(F)cccc2F)S(=O)(=O)C2CC2)C2CC2)C1=O` (single isomer, unassigned) [Example 359, 2-((2R,5R,6R)-6-(3-Chlorophenyl)-5-(4-chlorophenyl)-4-((S)-1-cyclopropyl-2-(N-(2,6-difluorophenyl)cyclopropanesulfonamido)ethyl)-3-oxomorpholin-2-yl)acetamide or 2-((2S,5R,6R)-6-(3-chlorophenyl)-5-(4-chlorophenyl)-4-((S)-1-cyclopropyl-2-(N-(2,6-difluorophenyl)cyclopropanesulfonamido)ethyl)-3-oxomorpholin-2-yl)acetamide] was tested, and the IC50 was < 1 nM. `NC(=O)C[C@H]1O[C@H](c2cccc(Cl)c2)[C@@H](c2ccc(Cl)cc2)N([C@H](CN(c2ccccc2)S(=O)(=O)C2CC2)C2CC2)C1=O` (single isomer, unassigned) [Example 360, 2-((2R,5R,6R)-6-(3-Chlorophenyl)-5-(4-chlorophenyl)-4-((S)-1-cyclopropyl-2-(N-phenylcyclopropanesulfonamido)ethyl)-3-oxomorpholin-2-yl)acetamide or 2-((2S,5R,6R)-6-(3-chlorophenyl)-5-(4-chlorophenyl)-4-((S)-1-cyclopropyl-2-(N-phenylcyclopropanesulfonamido)ethyl)-3-oxomorpholin-2-yl)acetamide] was tested, and the IC50 was 1 nM. `NC(=O)C[C@H]1O[C@H](c2cccc(Cl)c2)[C@@H](c2ccc(Cl)cc2)N([C@H](CN(c2ccccc2)S(=O)(=O)C2CC2)C2CC2)C1=O` (single isomer, unassigned) [Example 361, 2-((2R,5R,6R)-6-(3-Chlorophenyl)-5-(4-chlorophenyl)-4-((S)-1-cyclopropyl-2-(N-phenylcyclopropanesulfonamido)ethyl)-3-oxomorpholin-2-yl)acetamide or 2-((2S,5R,6R)-6-(3-chlorophenyl)-5-(4-chlorophenyl)-4-((S)-1-cyclopropyl-2-(N-phenylcyclopropanesulfonamido)ethyl)-3-oxomorpholin-2-yl)acetamide] was tested, and the IC50 was < 1 nM. Work on `CC(C)(C)S(=O)(=O)C[C@H](CC(F)(F)F)N1C(=O)[C@@H](CC(N)=O)O[C@H](c2cccc(Cl)c2)[C@H]1c1ccc(Cl)cc1` (single isomer, unassigned) [Example 362, 2-((2R,5R,6R)-4-((S)-1-(tert-Butylsulfonyl)-4,4,4-trifluorobutan-2-yl)-6-(3-chlorophenyl)-5-(4-chlorophenyl)-3-oxomorpholin-2-yl)acetamide or 2-((2S,5R,6R)-4-((S)-1-(tert-butylsulfonyl)-4,4,4-trifluorobutan-2-yl)-6-(3-chlorophenyl)-5-(4-chlorophenyl)-3-oxomorpholin-2-yl)acetamide] yielded an IC50 of 20 nM. `CC(C)(C)S(=O)(=O)C[C@H](CC(F)(F)F)N1C(=O)[C@@H](CC(N)=O)O[C@H](c2cccc(Cl)c2)[C@H]1c1ccc(Cl)cc1` (single isomer, unassigned) [Example 363, 22-((2R,5R,6R)-4-((S)-1-(tert-Butylsulfonyl)-4,4,4-trifluorobutan-2-yl)-6-(3-chlorophenyl)-5-(4-chlorophenyl)-3-oxomorpholin-2-yl)acetamide or 2-((2S,5R,6R)-4-((S)-1-(tert-butylsulfonyl)-4,4,4-trifluorobutan-2-yl)-6-(3-chlorophenyl)-5-(4-chlorophenyl)-3-oxomorpholin-2-yl)acetamide] showed an IC50 of 23 nM. `CNC(=O)C[C@H]1O[C@H](c2cccc(Cl)c2)[C@@H](c2ccc(Cl)cc2)N([C@H](CN(c2ccccc2F)S(=O)(=O)C2CC2)C2CC2)C1=O` (single isomer, unassigned) [Example 364, 2-((2R,5R,6R)-6-(3-Chlorophenyl)-5-(4-chlorophenyl)-4-((S)-1-cyclopropyl-2-(N-(2-fluorophenyl)cyclopropanesulfonamido)ethyl)-3-oxomorpholin-2-yl)-N-methylacetamide or 2-((2S,5R,6R)-6-(3-chlorophenyl)-5-(4-chlorophenyl)-4-((S)-1-cyclopropyl-2-(N-(2-fluorophenyl)cyclopropanesulfonamido)ethyl)-3-oxomorpholin-2-yl)-N-methylacetamide] was tested, and the IC50 was < 1 nM. `CNC(=O)C[C@H]1O[C@H](c2cccc(Cl)c2)[C@@H](c2ccc(Cl)cc2)N([C@H](CN(c2ccccc2F)S(=O)(=O)C2CC2)C2CC2)C1=O` (single isomer, unassigned) [Example 365, 2-((2R,5R,6R)-6-(3-Chlorophenyl)-5-(4-chlorophenyl)-4-((S)-1-cyclopropyl-2-(N-(2-fluorophenyl)cyclopropanesulfonamido)ethyl)-3-oxomorpholin-2-yl)-N-methylacetamide or 2-((2S,5R,6R)-6-(3-chlorophenyl)-5-(4-chlorophenyl)-4-((S)-1-cyclopropyl-2-(N-(2-fluorophenyl)cyclopropanesulfonamido)ethyl)-3-oxomorpholin-2-yl)-N-methylacetamide] gave an IC50 of 2 nM. In the case of `CN(C)C(=O)C[C@H]1O[C@H](c2cccc(Cl)c2)[C@@H](c2ccc(Cl)cc2)N([C@H](CN(c2ccccc2F)S(=O)(=O)C2CC2)C2CC2)C1=O` (single isomer, unassigned) [Example 366, 2-((2R,5R,6R)-6-(3-Chlorophenyl)-5-(4-chlorophenyl)-4-((S)-1-cyclopropyl-2-(N-(2-fluorophenyl)cyclopropanesulfonamido)ethyl)-3-oxomorpholin-2-yl)-N,N-dimethylacetamide or 2-((2S,5R,6R)-6-(3-chlorophenyl)-5-(4-chlorophenyl)-4-((S)-1-cyclopropyl-2-(N-(2-fluorophenyl)cyclopropanesulfonamido)ethyl)-3-oxomorpholin-2-yl)-N,N-dimethylacetamide], the IC50 is reported as < 1 nM. For `CN(C)C(=O)C[C@H]1O[C@H](c2cccc(Cl)c2)[C@@H](c2ccc(Cl)cc2)N([C@H](CN(c2ccccc2F)S(=O)(=O)C2CC2)C2CC2)C1=O` (single isomer, unassigned) [Example 367, 2-((2R,5R,6R)-6-(3-Chlorophenyl)-5-(4-chlorophenyl)-4-((S)-1-cyclopropyl-2-(N-(2-fluorophenyl)cyclopropanesulfonamido)ethyl)-3-oxomorpholin-2-yl)-N,N-dimethylacetamide or 2-((2S,5R,6R)-6-(3-chlorophenyl)-5-(4-chlorophenyl)-4-((S)-1-cyclopropyl-2-(N-(2-fluorophenyl)cyclopropanesulfonamido)ethyl)-3-oxomorpholin-2-yl)-N,N-dimethylacetamide], the IC50 was 4 nM. In the case of `O=C(C[C@H]1O[C@H](c2cccc(Cl)c2)[C@@H](c2ccc(Cl)cc2)N([C@H](CN(c2ccccc2F)S(=O)(=O)C2CC2)C2CC2)C1=O)Nc1ccccn1` (single isomer, unassigned) [Example 368, 2-((2R,5R,6R)-6-(3-Chlorophenyl)-5-(4-chlorophenyl)-4-((S)-1-cyclopropyl-2-(N-(2-fluorophenyl)cyclopropanesulfonamido)ethyl)-3-oxomorpholin-2-yl)-N-(pyridin-2-yl)acetamide or 2-((2S,5R,6R)-6-(3-chlorophenyl)-5-(4-chlorophenyl)-4-((S)-1-cyclopropyl-2-(N-(2-fluorophenyl)cyclopropanesulfonamido)ethyl)-3-oxomorpholin-2-yl)-N-(pyridin-2-yl)acetamide], the IC50 is reported as < 1 nM.
